Test results reported in patent US20130029928A1 (priority 2010, published 2013).
Like-named read-outs stand apart in the source and are kept apart here.

Experiment: Phase I study CXR1002-001: plasma pharmacokinetics (LC-MS/MS)
Type: in vivo, human
Settings: human, plasma, oral; for concentration at 843 h / concentration at 844 h / concentration at 864 h / concentration at 2 h / concentration at 3 h / concentration at 4 h / concentration at 24 h / concentration at 168 h / concentration at 170 h / concentration at 171 h / concentration at 172 h / concentration at 192 h / concentration at 336 h / concentration at 338 h / concentration at 339 h / concentration at 340 h / concentration at 360 h / concentration at 506 h / concentration at 507 h / concentration at 508 h / concentration at 528 h / concentration at 672 h / concentration at 674 h / concentration at 675 h / concentration at 676 h / concentration at 696 h / concentration at 840 h / concentration at 842 h / concentration at 504 h: read-out: Concentration; for concentration at 864 h: 864 hr (Day 37); for concentration at 24 h: 24 hr (Day 2); for concentration at 168 h: 168 hr (Day 8); for concentration at 192 h: 192 hr (Day 9); for concentration at 336 h: 336 hr (Day 15); for concentration at 360 h: 360 hr (Day 16); for concentration at 528 h: 528 hr (Day 23); for concentration at 672 h: 672 hr (Day 29); for concentration at 696 h: 696 hr (Day 30); for concentration at 840 h: 840 hr (Day 36); for concentration at 504 h: 504 hr (Day 22)
From the text: PK samples, PD (fasting) samples, blood glucose, and blood triglyceride samples, were taken over a 6-week period.
Dose limiting toxicity (DLT) will be based on the toxicity assessments over the first 3-week period of the repeat dosing schedule. PK samples (single blood sample) were taken on the following basis: • Every 6 weeks during the repeat dosing phase • If dosing is interrupted or stopped, samples will be taken at intervals according to patient convenience • PK sampling for safety evaluation may take place at any time, as clinically indicated
Plasma samples were collected after the single 50 mg dose at the following timepoints: Pre-dose, and then 0.25, 0.5, 0.75, 1, 1.5, 2, 3, 4, 6, 24, 48, and 72 hours after administration and then once weekly at weeks 2, 3, 4, 5, and 6 (days 8, 15, 22, 29, and 36). For patients treated with the weekly repeat dose, plasma samples were collected at the following timepoints: Pre-dose and then 2, 3, 4 and 24 hours after administration for a total of 6 weeks. Thereafter a single sample was collected every 6 weeks for monitoring of exposure during long term treatment. Plasma samples were processed at site and stored at −80° C. prior to batch shipment to the analytical laboratory.

[1] = 200 mg, Patient 009 Dose 200 mg
[2] = 200 mg, Patient 010 Dose 200 mg
[3] = 300 mg, Patient 011 Dose 300 mg
[4] = 300 mg, Patient 012 Dose 300 mg
[5] = 300 mg, Patient 013 Dose 300 mg
[6] = 300 mg, Patient 014 Dose 300 mg

## O=C(O)C(F)(F)C(F)(F)C(F)(F)C(F)(F)C(F)(F)C(F)(F)C(F)(F)F [CXR1002]
[1]
  concentration at 843 h: 373 µM
  concentration at 844 h: 329 µM
  concentration at 864 h: 346 µM
200 mg, Patient 009 Dose 200 mg, Day 92
  concentration at 92 day: 456 µM
200 mg, Patient 009 Dose 200 mg, Week 19
  concentration at 19 week: 618 µM
200 mg, Patient 009 Dose 200 mg, Week 25
  concentration at 25 week: 501 µM
200 mg, Patient 009 Dose 200 mg, Week 32
  concentration at 32 week: 540 µM
200 mg, Patient 010 Dose 200 mg, 0 hr
  concentration at 0 h: 0 nM
[2]
  concentration at 2 h: 21.1 µM
  concentration at 3 h: 30.4 µM
  concentration at 4 h: 33.6 µM
  concentration at 24 h: 58.6 µM
  concentration at 168 h: 51 µM
  concentration at 170 h: 81.7 µM
  concentration at 171 h: 81.4 µM
  concentration at 172 h: 119 µM
  concentration at 192 h: 101 µM
  concentration at 336 h: 98.8 µM
  concentration at 338 h: 118 µM
  concentration at 339 h: 103 µM
  concentration at 340 h: 66.7 µM
  concentration at 360 h: 175 µM
  concentration at 506 h: 207 µM
  concentration at 507 h: 276 µM
  concentration at 508 h: 187 µM
  concentration at 528 h: 191 µM
  concentration at 672 h: 192 µM
  concentration at 674 h: 193 µM
  concentration at 675 h: 237 µM
  concentration at 676 h: 231 µM
  concentration at 696 h: 256 µM
  concentration at 840 h: 243 µM
  concentration at 842 h: 188 µM
  concentration at 843 h: 232 µM
  concentration at 844 h: 223 µM
  concentration at 864 h: 221 µM
[3]
  concentration at 2 h: 101 µM
  concentration at 3 h: 107 µM
  concentration at 4 h: 112 µM
  concentration at 24 h: 95.9 µM
  concentration at 168 h: 57.9 µM
  concentration at 170 h: 112 µM
  concentration at 171 h: 122 µM
  concentration at 172 h: 138 µM
  concentration at 192 h: 178 µM
  concentration at 336 h: 131 µM
  concentration at 338 h: 160 µM
  concentration at 339 h: 160 µM
  concentration at 340 h: 147 µM
  concentration at 360 h: 237 µM
  concentration at 504 h: 145 µM
  concentration at 506 h: 204 µM
  concentration at 507 h: 288 µM
  concentration at 508 h: 244 µM
  concentration at 672 h: 255 µM
  concentration at 674 h: 291 µM
  concentration at 675 h: 304 µM
  concentration at 676 h: 243 µM
  concentration at 696 h: 326 µM
  concentration at 840 h: 270 µM
  concentration at 842 h: 384 µM
  concentration at 843 h: 350 µM
  concentration at 844 h: 282 µM
  concentration at 864 h: 387 µM
300 mg, Patient 011 Dose 300 mg, Week 12
  concentration at 12 week: 574 µM
[4]
  concentration at 2 h: 91.4 µM
  concentration at 3 h: 93.5 µM
  concentration at 4 h: 123 µM
  concentration at 24 h: 74 µM
  concentration at 168 h: 64.8 µM
  concentration at 171 h: 148 µM
  concentration at 172 h: 126 µM
  concentration at 192 h: 152 µM
  concentration at 336 h: 141 µM
  concentration at 339 h: 196 µM
  concentration at 340 h: 213 µM
  concentration at 360 h: 218 µM
  concentration at 504 h: 181 µM
  concentration at 506 h: 278 µM
  concentration at 507 h: 261 µM
  concentration at 508 h: 221 µM
  concentration at 528 h: 263 µM
  concentration at 672 h: 303 µM
  concentration at 674 h: 340 µM
  concentration at 675 h: 373 µM
  concentration at 676 h: 292 µM
  concentration at 696 h: 334 µM
[5]
  concentration at 2 h: 82.7 µM
  concentration at 3 h: 76 µM
  concentration at 4 h: 85.3 µM
  concentration at 24 h: 79.6 µM
[6]
  concentration at 2 h: 131 µM
  concentration at 3 h: 121 µM
  concentration at 4 h: 100 µM
  concentration at 24 h: 102 µM
  concentration at 168 h: 79.6 µM
  concentration at 170 h: 154 µM
  concentration at 171 h: 178 µM
  concentration at 172 h: 180 µM
  concentration at 192 h: 178 µM
  concentration at 336 h: 173 µM
  concentration at 338 h: 297 µM
  concentration at 339 h: 270 µM
  concentration at 340 h: 261 µM
  concentration at 504 h: 288 µM
  concentration at 506 h: 336 µM
  concentration at 507 h: 374 µM
  concentration at 528 h: 420 µM
  concentration at 672 h: 355 µM
  concentration at 674 h: 389 µM
  concentration at 675 h: 400 µM
  concentration at 676 h: 411 µM
  concentration at 696 h: 478 µM
  concentration at 840 h: 426 µM
  concentration at 842 h: 506 µM
